The subject of one data set is rats. The data set can be described thus: Sedation scoring (righting reflex, locomotion) after intravenous injection. It counts as in vivo, rat. The source says: It is generally accepted in the literature that both alphaxalone and alphadolone are intravenous anaesthetics, i.e. when they are given intravenously, they produce sedation and unconsciousness to a level sufficient for surgery. […] Such data, although alluded to in the literature, is not stated clearly with scientific evidence. Thus, we performed the experiments described in Example 2. Rats were given an intravenous injection of alphadolone. All of the rats became unconscious and surgically anaesthetised within 5 seconds of the intravenous injection. […] Thus, it can be concluded that intravenous injection of alphadolone produces unconsciousness.
Four rats (wt 100 g) were given 0.25 ml injections of alphadolone solution (10 mg/ml; dissolved in 10% Cremophor EL), into the lateral tail vein. A stopwatch was used to time the following scoring of sedation every 15 seconds:
1—righting reflex but no spontaneous locomotion
2—spontaneous locomotion but uncoordinated
3—normal locomotion and exploratory behaviour: full recovery
They all recovered fully within 90 seconds of the drug administration.

In data set [1] the test system is patients scheduled for knee reconstruction surgery. The data set can be described thus: Phase 1 study of oral alphadolone after knee reconstruction surgery: pain scores, PCA morphine consumption, CPM. It counts as in vivo, human. To be noted: for morphine consumption from the PCA machine vs total range of placebo patients: single patients at 100, 250 and 500 mg orally. The source says: A pilot clinical study entitled “Investigation of the analgesic properties of alphadolone acetate administered orally to man—a dose escalation and efficacy study” was submitted to Monash Medical Centre Human Research and Ethics Committee A. It was approved and registered with the Therapeutics Goods Administration it Canberra under the Clinical Trials Notification (CTN) scheme. This was a small pilot study of phase 1 type design but incorporating some randomisation and placebo control because of the nature of the measurements, i.e. subjective pain measurements. The study was performed prospectively, one in three patients randomised to receive placebo formulation (lactose) and double-blind i.e. neither the patient nor the observer (a research anaesthetic registrar) were aware of the nature of the treatment, placebo or alphadolone.
The study consisted of two phases. The first phase was a dose escalation study. At any time during this phase as well as the second phase, if the patient was randomised to receive placebo then a capsule containing lactose was administered orally at the time of medication. If the patient was randomised to receive alphadolone then the first patient so randomised received 25 mg alphadolone acetate orally. The patient was monitored for efficacy of the medication and side effects. If there were no unacceptable side effects such as respiratory depression or severe sedation or disorientation then the next patient randomised to receive the active treatment received a higher dose. The dose escalation planned was in the order, 25, 50, 100, 250, 500 and 1000 mg. The original plan was to continue dose escalation until unacceptable side effects occurred and then to reduce the dose to go onto the next, second, phase of the study, a double-blind comparison of the dose just below the high dose that produced unacceptable side effects compared with placebo. However, the view of the Ethics Committee was that this was more appropriate to a drug company sponsored trial and they ordered that the trial should switch from the dose escalation phase to the comparison phase when there was clear evidence of efficacy.
Thus in the second phase of the study, a double-blind comparison of 250 mg of alphadolone with placebo was carried out. Patient 8, 10, 13 and 14 received 250 mg of alphadolone and patient 9, 11 and 12 received placebo.
14 patients scheduled for knee reconstruction surgery were recruited to this study. On the day prior to surgery for morning surgical patients or on the morning prior to afternoon surgery in those patients scheduled for afternoon lists, written informed consent was obtained from the patients after inclusion and exclusion criteria were met. The patient had to be ASA class 1 or 2, between 18 and 70 years, not using regular analgesics apart from paracetamol and non-steroid anti-inflammatory drugs. These were withheld on the day of surgery. The patient also had to have no renal, hepatic or respiratory disease other than mild asthma and could not be pregnant. No epidural/spinal/knee local anaesthetic or opioid injections were allowed. All patients had to receive post-operative morphine from a patient controlled analgesia device. After obtaining informed consent the patients were then given an opportunity to familiarise themselves with the PCA machine and also practice completing the visual analogue and verbal rating scales used for post-operative assessments.
No premedication was given. The patients were taken to the operating theatre and subjected to a standardised anaesthetic regime that consisted of a propofol induction followed by a propofol infusion and the muscle relaxant of the anaesthetist's preference The trachea was intubated and lungs ventilated with a mixture of nitrous oxide and oxygen. Morphine 1-2 mg intravenously was given as indicated by normal signs of depth of anaesthesia. The amount of morphine used in the operating theatre was recorded in the case record form. […]

For the next data set, the system named is mice. The data set is described as follows: PAN LABS toxicity test. It counts as in vivo, mouse. On the procedure: The experiments from our laboratory are supported by observations by an independent body, PAN LABS. A sample of alphadolone used in the above experiments in rats in our laboratory was sent to a commercial drug-testing house, called PAN LABS. They gave the drug to a number of preparations to look for toxicity effects as well as pharmacological effect. In one toxicity test performed at PAN LABS, doses of up to 300 mg per kg of alphadolone was given to mice.

Setting [2] is: up to six hours after capsule, 100, 250 and 500 mg orally, n = 7.

Each structure is given as a SMILES string. Entries after “also recorded” stand apart in the source; their conditions may differ.

In the case of `CC(=O)OCC(=O)[C@H]1CC[C@H]2[C@@H]3CC[C@H]4C[C@H](O)CC[C@]4(C)[C@H]3C(=O)C[C@]12C` [alphadolone, 21-acetoxy-3alpha-hydroxy-5alpha-pregnane-11,20-dione], the “righting reflex / sedation” value in the data set on rats (25 mg/kg intravenous (lateral tail vein), 10% Cremophor EL, four rats) is “lost the righting reflex and were heavily sedated”. In the data set on rats (25 mg/kg intravenous, four rats), the “time to full recovery after drug administration” value was at most 90 s. In addition, the “time to unconsciousness and surgical anaesthesia after intravenous injection” value in the data set on rats (intravenous injection, rats) was at most 5 s. The “morphine requirement and pain relief after major knee surgery” value in data set [1] (250 mg and 500 mg given orally) was “reduced the morphine requirement for pain relief after major knee surgery and at the same time improved the pain relief”. Also, in data set [1] ((3.62÷12.42)×100% vs placebo), the “morphine sparing over six hours” value worked out at 29.1%. Further, the “mean morphine usage during the six-hour period after capsule ingestion” value in data set [1] (PCA morphine, alphadolone treated patients (placebo 12.42 mg)) turned out to be 8.8 mg. Also, in data set [1] (VAS after capsule as ratio of pre-capsule readings, six hours, 100, 250 and 500 mg orally), the “Standardised VAS scores; Mann-Whitney U-Test, Mean rank” value is 82.85. Besides, the “morphine consumption from the PCA machine vs total range of placebo patients” value in data set [1] (between one and six hours after capsule) is listed as “fell outside the total range of morphine used by placebo treated patients”. Besides, the “verbal rating pain scores compared with placebo (chi squared test)” value in data set [1] (n = 7 vs placebo n = 5, p=0.006) is recorded as “significantly lower pain scores”. Besides, in data set [1] (n = 7 vs placebo n = 5, p=0.0117), the “standardised visual analogue scores compared with placebo (Mann-Whitney U-test)” value is “significantly lower standadised visual analogue scores”. The “morphine usage compared with placebo (chi-square)” value in data set [1] (p=0.0153, p=0.00651 with 3 and 4 mg cells combined) is given as “use less than placebo treated patients”. In data set [1] (six hours after capsule, n = 7), the “Morphine doses in half-hour periods: 0 mg, frequency” value is 39; the “Morphine doses in half-hour periods: 1 mg, frequency” value worked out at 29; the “Morphine doses in half-hour periods: 2 mg, frequency” value amounted to 15; the “Morphine doses in half-hour periods: 3 mg, frequency” value is given as 1. In data set [1] (six hours after capsule, n = 7), the “Morphine doses in half-hour periods: 4 mg, frequency” value amounted to 0. Besides, the “morphine usage with increasing alphadolone dose” value in data set [1] (six hours after capsule, single patients at 25, 50 and 100 mg orally) is reported as “progressive reduction in morphine usage”. In addition, in data set [1] (six hours after capsule), the “morphine consumption from the PCA machine vs total range of placebo patients” value is “fell outside the total range of the morphine consumption of placebo treated patients”. Also, in data set [1] (setting [2]), the “Verbal rating scales for pain: Mild, frequency” value is recorded as 53; the “Verbal rating scales for pain: Moderate, frequency” value is on record as 20; the “Verbal rating scales for pain: No pain, frequency” value is given as 6; the “Verbal rating scales for pain: Severe, frequency” value worked out at 4. The grip strength result in the data set on mice (300 mg/kg, mice) is recorded as “mild decrease in grip strength; also recorded: slight decrease in grip strength”. The anaesthesia entry in the data set on mice (doses of up to 300 mg per kg given to mice) is recorded as “did not produce anaesthesia”.

The values above are taken from patent US6787530B1, “Use of pregnane-diones as analgesic agents” (priority 1996, dated 2004).
